Measurements from patent US20090047243A1, “COMBINATIONS FOR THE TREATMENT OF B-CELL PROLIFERATIVE DISORDERS” (priority 2007, published 2009).

Columns and labels:
[1] = tested on: H929 multiple myeloma cell line; assay: Anti-proliferation assay (ATPLite, 72 h); type: cell-based, human; set-up: key: S = lnfX·lnfY·ΣIdata(Idata−ILoewe), volume over Loewe additivity
Procedure, shortened: (§1)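 Cells treated 72 h with compounds in 2- or 3-fold serial dilutions (12 concentrations for single agents; 6×6 matrix for combinations); INA-6 medium supplemented with 10 ng/ml IL-6. Viability by ATPLite luminescence; % inhibition vs untreated wells, curves fitted, combinations assessed by Loewe additivity and Synergy Score.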

[2] = tested on: RPMI-8226 multiple myeloma cell line; assay: Anti-proliferation assay (ATPLite, 72 h); type: cell-based, human; set-up: key: S = lnfX·lnfY·ΣIdata(Idata−ILoewe), volume over Loewe additivity
Procedure, shortened: as §1

[3] = tested on: human multiple myeloma cells (MM.1S); assay: Anti-proliferation assay (ATPLite, 72 h); type: cell-based; set-up: key to synergy score / synergy (score), PDEi × HE-NECA: S = lnfX·lnfY·ΣIdata(Idata−ILoewe), volume over Loewe additivity
Procedure, shortened: as §1

[4] = tested on: human multiple myeloma cells (MM.1R); assay: Anti-proliferation assay (ATPLite, 72 h); type: cell-based; set-up: key: S = lnfX·lnfY·ΣIdata(Idata−ILoewe), volume over Loewe additivity
Procedure, shortened: as §1

ANBL6 MM cell line = assay: Anti-proliferation assay (ATPLite, 72 h); type: cell-based, human; conditions: CGS-21680 × PDE inhibitor
Experimental: (§2) ANBL6 and INA-6 culture media was also supplemented with 10 ng/ml IL-6. […] MM.1S, MM.1R, OCI-ly10, Karpas 422, and SU-DHL6 cells were provided by the Dana Farber Cancer Institute. H929, RPMI-8226, GA-10, and Farage cells were from ATCC (Cat #'s CCL-155, CRL-9068, CRL-2392 and CRL-2630 respectively). MOLP-8, EJM, KSM-12-PE, and OPM2 were from DSMZ. The ANBL6 and INA-6 cell lines were provided by the M. D. Anderson Cancer Research Center. Compounds were prepared in DMSO at 1000× the highest desired concentration. Master plates were generated consisting of serially diluted compounds in 2- or 3-fold dilutions in 384-well format. For single agent dose response curves, the master plates consisted of 9 individual compounds at 12 concentrations in 2- or 3-fold dilutions. For combination matrices, master plates consisted of individual compounds at 6 or 9 concentrations at 2- or 3-fold dilutions. […] To obtain combination data, two master plates were diluted into the assay plates. […] Thirty microliters of ATPLite (Perkin Elmer) at room temperature was then added to each well. […] Measurements were taken at the top of the well using a luminescence aperture and a read time of 0.1 seconds per well. The percent inhibition (% I) for each well was calculated using the following formula: % I=[(avg. untreated wells-treated well)/(avg. untreated wells)]×100. […] Negative inhibition values result from local variations in treated wells as compared to untreated wells. […] The uncertainty of each fitted parameter was estimated from the range over which the change in reduced chi-squared was less than one, or less than minimum reduced chi-squared if that minimum exceeded one, to allow for underestimated σI errors. Single agent curve data were used to define a dilution series for each compound to be used for combination screening in a 6×6 matrix format. […] The Loewe additivity model was used to quantify combination effects. […] A “Synergy Score” was also used, where the Synergy Score S=log fX log fY ΣIdata(Idata-ILoewe), summed over all non-single-agent concentration pairs, and where log fX,Y is the natural logarithm of the dilution factors used for each single agent. This effectively calculates a volume between the measured and Loewe additive response surfaces, weighted towards high inhibition and corrected for varying dilution factors. An uncertainty σS was calculated for each synergy score, based on the measured errors for the Idata values and standard error propagation.

EJM MM cell line = assay: Anti-proliferation assay (ATPLite, 72 h); type: cell-based, human; conditions: CGS-21680 × PDE inhibitor
Experimental: as §2

INA-6 MM cell line = assay: Anti-proliferation assay (ATPLite, 72 h); type: cell-based, human; conditions: CGS-21680 × PDE inhibitor
Experimental: as §2

KSM-12-PE MM cell line = assay: Anti-proliferation assay (ATPLite, 72 h); type: cell-based, human; conditions: CGS-21680 × PDE inhibitor
Experimental: as §2

MOLP-8 MM cell line = assay: Anti-proliferation assay (ATPLite, 72 h); type: cell-based, human; conditions: CGS-21680 × PDE inhibitor
Experimental: as §2

OPM2 MM cell line = assay: Anti-proliferation assay (ATPLite, 72 h); type: cell-based, human; conditions: CGS-21680 × PDE inhibitor
Experimental: as §2

patient CLL cells = assay: Apoptosis assay (Hoechst 33342, flow cytometry, 48 h); type: cell-based, human; set-up: unit not given here; conditions: CGS-21680 0 μM
Description: Blood samples were obtained in heparinized tubes with IRB-approved consent from flow cytometry-confirmed B-CLL patients that were either untreated or for whom at least 1 month had elapsed since chemotherapy. Patients with active infections or other serious medical conditions were not included in this study. Patients with white blood cell counts of less than 15,000/μl by automated analysis were excluded from this study. Whole blood was layered on Ficoll-Hystopaque (Sigma), and peripheral blood mononuclear cells (PBMC) isolated after centrification. […] One million cells were stained with anti-CD5-PE and anti-CD19-PE-Cy5 (Becton Dickenson, Franklin Lakes N.J.). The percentage of B-CLL cells was defined as the percentage of cells doubly expressing CD5 and CDl9, as determined by flow cytometry. […] Compound master plates were diluted 1:50 into complete media to create working compound dilutions. Compound crosses were then created by diluting two working dilution plates 1:10 into each plate of cells. […] Hoechst 33342 (Molecular Probes, Eugene Oreg.) at a final concentration of 0.25 μg/1 mL was added to each well, and the cells incubated at 37° C. for an additional ten minutes before being placed on ice until analysis. Plates were then analyzed on a LSR-II flow cytometer (Becton Dickenson, Franklin Lakes, N.J.) equipped with the High Throughput Sampling (HTS) option in high throughput mode. […] The apoptotic fraction was calculated using FlowJo software (Tree Star Inc., Ashland, Oreg.) after excluding debris by a FSC/SSC gate and subsequently gating for cells that accumulate the Hoechst dye.

[5] = tested on: phosphodiesterase (PDE) types; conditions: PDE type(s) in brackets after the name; cited from earlier work

## O=C(Nc1c(Cl)cncc1Cl)c1ccc(OC(F)F)c(OCC2CC2)c1 [Roflumilast, 3-(cyclopropylmethoxy)-N-(3,5-dichloro-4-pyridinyl)-4-(difluoromethoxy)-benzamide]
[1]; PDE inhibitor crossed with (S) ENBA, H929
  synergy score: 1.77
[1]; PDE inhibitor crossed with Chloro-IB-MECA, H929
  synergy score: 1.16
[1]; PDE inhibitor crossed with HE-NECA, H929
  synergy score: 0.98
[1]; in combination with adenosine receptor agonist CGS-21680, H929
  synergy score: 3.71
[1]; in combination with adenosine receptor agonist HE-NECA, H929
  synergy score: 0.98
[1]; in combination with adenosine receptor agonist regadenoson, H929
  synergy score: 2.7
[2]; in combination with adenosine receptor agonist CGS-21680, RPMI 8226
  synergy score: 0.69
[2]; in combination with adenosine receptor agonist HE-NECA, RPMI-8226
  synergy score: 0.466
[2]; in combination with adenosine receptor agonist regadenoson, RPMI 8226
  synergy score: 1.12
[3]; Homo sapiens, MM1.S, Roflumilast 0.0631 μM, Cl-IB-MECA conc. (μM), read-out: Percent inhibition of ATP in MM.1S cells
  inhibition at 0.0631 µM: -7.1%
[3]; Homo sapiens, MM1.S, Roflumilast 0.126 μM, Cl-IB-MECA conc. (μM), read-out: Percent inhibition of ATP in MM.1S cells
  inhibition at 0.126 µM: 1.5%
[3]; Homo sapiens, MM1.S, Roflumilast 0.252 μM, Cl-IB-MECA conc. (μM), read-out: Percent inhibition of ATP in MM.1S cells
  inhibition at 0.252 µM: -3.5%
[3]; Homo sapiens, MM1.S, Roflumilast 0.505 μM, Cl-IB-MECA conc. (μM), read-out: Percent inhibition of ATP in MM.1S cells
  inhibition at 0.505 µM: 11%
[3]; Homo sapiens, MM1.S, Roflumilast 1.01 μM, Cl-IB-MECA conc. (μM), read-out: Percent inhibition of ATP in MM.1S cells
  inhibition at 1.01 µM: 7.5%
[3]; PDE inhibitor crossed with (S) ENBA, MM.1S
  synergy score: 2.19
[3]; PDE inhibitor crossed with Chloro-IB-MECA, MM.1S
  synergy score: 2.12
[3]; PDE inhibitor crossed with HE-NECA, MM.1S
  synergy score: 2
[3]; in combination with adenosine receptor agonist CGS-21680, MM.1S
  synergy score: 3.82
[3]; in combination with adenosine receptor agonist HE-NECA, MM.1S
  synergy score: 2
[3]; in combination with adenosine receptor agonist regadenoson, MM.1S
  synergy score: 3.56
[4]; in combination with adenosine receptor agonist CGS-21680, MM.1R
  synergy score: 3.61
[4]; in combination with adenosine receptor agonist regadenoson, MM.1R
  synergy score: 5.83
ANBL6 MM cell line
  synergy score: 3.73
EJM MM cell line
  synergy score: 1.06
INA-6 MM cell line
  synergy score: 2.62
KSM-12-PE MM cell line
  synergy score: 0.27
MOLP-8 MM cell line
  synergy score: 3.44
OPM2 MM cell line
  synergy score: 0.29
Patient CLL cells; Roflumilast 0.03 μM
  Induction of apoptosis: 17
Patient CLL cells; Roflumilast 0.09 μM
  Induction of apoptosis: 26
Patient CLL cells; Roflumilast 0.27 μM
  Induction of apoptosis: 32
[5]
  PDE inhibitors (specificity): Roflumilast (4)
